From PMC9011347, “Small-Molecule Inhibitors Targeting Lipolysis in Human Adipocytes” (Journal of the American Chemical Society, 2022)

Target: T1, PNPLA1 (Homo sapiens, UniProt Q8N8W4)
T1 construct: expressed in transfected cells; host or cells: HEK293T cells
Assay: PNPLA1-dependent ω-O-acylceramide formation in HEK293T cells
Format: cell-based
Conditions: NG-497 40 µM, Orlistat 40 µM
Method: Fig. S3: Investigation of off-target effects of NG-497 on structurally and functionally related lipid hydrolases. (a) PNPLA1-dependent formation of acylceramides was monitored in a cell-based assay in HEK293T cells. Experiments were performed in the presence or absence of NG-497 (40 µM) and the non-selective lipase inhibitor Orlistat (40 µM). Orlistat, but not NG-497, inhibited PNPLA1/CGI-58-dependent ω-O-acylceramide formation. (b-h) Enzymes were overexpressed in Expi293 cells and cell lysates were used as source of enzymatic activity. […] Experiments were performed in the presence or absence of NG-497 (100 µM) and the formation of reaction products was monitored. […]
Data were calculated relative to the basal activity detected in LacZ-transfected controls. […]
LPL activity was inhibited using an anti-LPL antibody. All data are presented as mean ± S.D. Statistical significance was determined via ANOVA followed by Bonferroni post hoc test ( ***, p < 0.001). […]
Released free fatty acids were quantified via NEFA C kit (Fujifilm Wako Chemicals, Neuss, Germany) and release of p-nitrophenol was measured at 405 nm. […] Cellular ω-O-acylceramide formation was monitored using [1-14C]linoleic acid as tracer. […] The activity of purified human pancreatic lipase (MilliporeSigma #SRE0028) was determined as previously described7 in the presence or absence of NG-497 (100µM) or Orlistat (20 µM). […]

T1 sequence (Q8N8W4 whole entry): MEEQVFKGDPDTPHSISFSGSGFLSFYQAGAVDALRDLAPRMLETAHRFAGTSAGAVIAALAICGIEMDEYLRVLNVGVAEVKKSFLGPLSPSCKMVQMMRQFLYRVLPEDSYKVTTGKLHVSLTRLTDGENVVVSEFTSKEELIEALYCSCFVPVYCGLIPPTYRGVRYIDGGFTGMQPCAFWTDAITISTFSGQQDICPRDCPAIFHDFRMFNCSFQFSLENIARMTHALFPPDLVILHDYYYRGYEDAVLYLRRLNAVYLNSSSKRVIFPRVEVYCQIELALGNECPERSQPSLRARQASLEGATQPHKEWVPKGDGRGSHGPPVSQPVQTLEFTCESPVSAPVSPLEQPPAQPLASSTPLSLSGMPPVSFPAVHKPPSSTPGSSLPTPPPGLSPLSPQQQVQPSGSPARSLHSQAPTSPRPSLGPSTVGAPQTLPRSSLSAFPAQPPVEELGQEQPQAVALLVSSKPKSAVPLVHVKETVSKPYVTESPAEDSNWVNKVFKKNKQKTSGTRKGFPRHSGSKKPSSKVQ

## CCOc1ccc(-c2cc(OC)cc(C(=O)OC(C)C)n2)cc1 [NG-497]
  PNPLA1/CGI-58-dependent ω-O-acylceramide formation: not affected
